Values of other authors in patent publication US20140066461A1, “METHODS FOR DIAGNOSING AND TREATING SCHIZOPHRENIA” (priority 2012, published 2014).

What was measured:
[1] = system: protein tyrosine phosphatases
BTK = BTK (Homo sapiens, UniProt Q06187)
[2] = system: patients with previously treated mantle cell lymphoma
rats [3] = system: rats
rats [4] = system: rats; remark: listed apart in the source

Sequence of BTK (Q06187 whole entry): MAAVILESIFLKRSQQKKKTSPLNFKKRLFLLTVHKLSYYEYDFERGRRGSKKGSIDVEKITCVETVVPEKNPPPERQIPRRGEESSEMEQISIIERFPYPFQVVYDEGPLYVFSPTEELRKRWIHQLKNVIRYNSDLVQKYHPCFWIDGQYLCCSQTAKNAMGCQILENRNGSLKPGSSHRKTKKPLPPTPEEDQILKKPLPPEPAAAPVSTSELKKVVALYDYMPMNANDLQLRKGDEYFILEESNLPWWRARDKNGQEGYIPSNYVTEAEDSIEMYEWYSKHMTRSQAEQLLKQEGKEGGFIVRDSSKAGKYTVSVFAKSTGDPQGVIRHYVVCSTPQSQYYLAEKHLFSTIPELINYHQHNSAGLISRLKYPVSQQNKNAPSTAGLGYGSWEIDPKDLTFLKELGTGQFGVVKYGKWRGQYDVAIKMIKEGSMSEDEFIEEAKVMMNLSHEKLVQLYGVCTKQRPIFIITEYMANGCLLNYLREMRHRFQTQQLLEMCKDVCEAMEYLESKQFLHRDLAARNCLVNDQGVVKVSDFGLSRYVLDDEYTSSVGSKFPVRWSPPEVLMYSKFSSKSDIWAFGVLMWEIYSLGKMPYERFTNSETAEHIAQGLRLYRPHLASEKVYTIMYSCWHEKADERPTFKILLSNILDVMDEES

SMILES: Cc1ccc(S(=O)(=O)/C=C/C#N)cc1 [BAY-11-7082]
- inhibition of protein tyrosine phosphatases [1]: act as inhibitors of protein tyrosine phosphatases

SMILES: Nc1ncnc2c1c(-c1ccc(Oc3ccccc3)cc1)nn2C1CCCC1 [PCI-29732]
- mode of BTK inhibition (BTK): reversible BTK inhibitor

SMILES: C=CC(=O)N1CCC[C@@H](n2nc(-c3ccc(Oc4ccccc4)cc3)c3c(N)ncnc32)C1 [PCI-32765]
- complete responses ([2]; 560 mg/day): About 15%
- objective responses (partial plus complete) ([2]; 560 mg/day, 51 patients evaluable for efficacy, early in the trial): 69%
- effect on lymph nodes ([2]; MCL study, accompanied by large increases in lymphocyte counts in circulation): rapid shrinkage of lymph nodes swollen with malignant cells
- patients exhibiting complete or partial responses ([2]; preliminary data, ongoing phase II trial): About two-thirds
- toxicity ([2]; small trials, mantle cell lymphoma): low toxicity

SMILES: O=C(CCCN1CCC(O)(c2ccc(Cl)cc2)CC1)c1ccc(F)cc1 [haloperidol]
- effects of amphetamine on attention (rats [3]): reverse the effects of amphetamine on attention in rats
- picrotoxin effect on prepulse inhibition of startle (rats [4]): reduces this effect
